From PMC6142817, “New Urea Derivatives Are Effective Anti-senescence Compounds Acting Most Likely via a Cytokinin-Independent Mechanism” (Frontiers in Plant Science, 2018)
Like-named read-outs stand apart in the source and are kept apart here.

How the values were obtained:
CRE1/AHK4 = CRE1/AHK4 (Arabidopsis thaliana, UniProt Q9C5U0); test: Cytokinin receptor activation assay in E. coli (CRE1/AHK4); assay type: cell-based; design: expressed in transfected cells; host or cells: Escherichia coli strain KMI001, plasmid pIN-IIIAHK4; settings: E. coli bacterial receptor assay
Text: The activity of this enzyme is finally measured in the assay and corresponds to the ability of the tested compound to activate this cytokinin receptor. Both assays were done at least twice and the presented graphs are the most representative examples.

[1] = system: excised wheat leaves (chlorophyll degradation in the dark); test: Wheat leaf senescence assay (WLSA); assay type: cell-based, Triticum aestivum cv. Hereward; settings: for Chlorophyll content (% of the fresh control): 5 days in the dark, DMSO control = 0; for chlorophyll remaining, % of the initial chlorophyll: 21 days after leaf detachment, dark; for IC50: Triticum aestivum, 120 h
Method: (§1) Tobacco callus, Amaranthus and Wheat leaf senescence assay (WLSA) were performed as described by Holub et al. ([1998]) including the number of repetitions in each assay. An exception to the published protocols was that the tobacco callus assay was performed in 6-well microtiter plates (with each well containing 3 ml of Murashige Skoog medium into which 0.1 g of callus was added). Each compound was tested at least twice in each assay and in a wider concentration range to obtain concentration-dependent activity curves. IC50 means compound concentration at which chlorophyll degradation is inhibited by 50% and EC50 means half the maximal effective concentration.
(§2) Amaranthus assay evaluates the induction of betacyanin synthesis in Amaranthus (Amaranthus caudatus var. atropurpurea) cotyledons, which is induced by cytokinins (Bamberger and Mayer, [1960]). The WLSA evaluates the ability of compounds to retard chlorophyll degradation in excised wheat leaves that are kept in the dark. The wheat leaf segments (Triticum aestivum cv. Hereward) were used in all other experiments requiring wheat. Arabidopsis (Arabidopsis thaliana) leaf senescence assay was performed with detached leaves from 30-day-old plants, which were grown in soil in phytotron under standard conditions (Rivero et al., [2014]). Four leaves of a combined weight of 60 mg were placed in a six-well plate and stored in the dark for 12 days at 22°C. The leaves (except the fresh control leaves) floated on water solutions of tested compounds. Fresh control leaves were leaves detached from a plant and immediately used for chlorophyll determination. The duration of the senescence assay of Arabidopsis leaves was prolonged to highlight the difference in chlorophyll content between a negative control and treatments. Arabidopsis leaves were losing chlorophyll more slowly than wheat leaves. Chlorophyll extraction and spectrophotometric determination of its content was done according to Holub et al. ([1998]).

ARR5:GUS reporter gene = test: Arabidopsis ARR5:GUS reporter gene assay; assay type: in vivo, Arabidopsis thaliana
Method: Transgenic Arabidopsis plants (Arabidopsis thaliana (L.) Heynh. accession Wassilewskija) harboring the GUS reporter gene (gene for β-glucuronidase) fused to 1.6 kb of the ARR5 (PARR5−GUS) gene promoter (D'Agostino et al., [2000]) were kindly provided by professor Thomas Schmülling. The assay was performed according to Romanov et al. ([2002]). β-Glucuronidase (GUS) activity was quantitatively determined by measuring fluorescence of 4-methylumbelliferyl (MU) on a Synergy H4 hybrid reader (Biotek, Winooski, VT) with excitation and emission wavelengths of 365 and 445 nm, respectively. GUS specific activity was determined as nmol MU × mg protein^−1 × h^−1. This was calculated by dividing the relative fluorescence units (obtained per hour) by protein content of the same sample. Protein extraction was done as described by Romanov et al. ([2002]) but its content was determined using a bicinchoninic acid reagent (Smith et al., [1985]). Finally we expressed the GUS activity in samples as a relative percentage, the activity of 1 μM BA being set as 100% activation. The concentration-dependent activity curves and EC50 values (for TDZ, tZ, BA, TD-iP, and TD-tZ) were constructed using Scion image program.

[2] = system: Amaranthus caudatus cotyledon-hypocotyl explants; test: Amaranthus bioassay (betacyanin synthesis); assay type: cell-based, Amaranthus caudatus var. atropurpurea; settings: for EC50: Amaranthus caudatus
Method: as §1, §2

[3] = system: detached wheat leaves (ethylene production); test: Ethylene accumulation assay; assay type: cell-based, Triticum aestivum; settings: 10 μM, sealed vials; for ethylene production, fold of the control: days 3–6, dark; for ethylene production, fold of untreated leaves: first 3 days, dark
Method: Two detached leaf tips (final weight 50 mg) from 7-day-old wheat plants were incubated in 10 mL gas chromatography vials with either 1 mL of 0.1% DMSO (control), 10 μM ASES or 10 μM TDZ, and kept in the dark for 6 days at 25°C (1 day longer than the classical WLSA). On the third day, 1 mL of air from each vial was collected and the vials were then left open for 1 h and aerated with fresh air. Another 1 mL of air was collected from each vial on the sixth day. The amount of ethylene in each sample was determined using gas chromatography and the flame ionization detector method described by Fišerová et al. ([2001]).

[4] = system: photosystem II complexes in wheat leaves from WLSA; test: Two-dimensional clear-native/SDS electrophoresis of membrane complexes; design: species or system Triticum aestivum; settings: 10 μM, 5 days in the dark
Method: Leaves from WLSA were frozen at −80°C and then dried overnight by lyophilization at 5°C. Dried material was homogenized by bead-beating (2 × 10 s) with 2.5 mm metal beads (Mini-Beadbeater-16, BioSpec, USA). The resulting powder was mixed with a thylakoid buffer, pH 6.5, containing 25 mM MES, 10 mM MgCl2, 10 mM CaCl2, and 25% glycerol and bead-beaten (4 × 10 s). The obtained cell extract was centrifuged, after which the insoluble fraction was transferred into a new tube and solubilized with 2% dodecyl-β-maltoside for 15 min on ice. The solution was centrifuged at 30,000 × g for 10 min to remove any non-solubilized cell debris and the obtained solubilized membrane proteins were separated by electrophoresis using a 4 to 12% polyacrylamide clear native gel (Wittig et al., [2007]). Individual components of protein complexes were resolved by incubating the gel strip from the first electrophoresis in 2% SDS and 1% dithiothreitol for 30 min at room temperature, after which the proteins were separated in a second dimension by SDS-electrophoresis using a denaturing 12 to 20% polyacrylamide gel containing 7 M urea (Dobáková et al., [2009]). Proteins were stained with Coomassie Brilliant Blue, and individual protein components were identified by comparing the protein pattern with previously published results (Pagliano et al., [2012]).

Sequence of CRE1/AHK4 (Q9C5U0 whole entry): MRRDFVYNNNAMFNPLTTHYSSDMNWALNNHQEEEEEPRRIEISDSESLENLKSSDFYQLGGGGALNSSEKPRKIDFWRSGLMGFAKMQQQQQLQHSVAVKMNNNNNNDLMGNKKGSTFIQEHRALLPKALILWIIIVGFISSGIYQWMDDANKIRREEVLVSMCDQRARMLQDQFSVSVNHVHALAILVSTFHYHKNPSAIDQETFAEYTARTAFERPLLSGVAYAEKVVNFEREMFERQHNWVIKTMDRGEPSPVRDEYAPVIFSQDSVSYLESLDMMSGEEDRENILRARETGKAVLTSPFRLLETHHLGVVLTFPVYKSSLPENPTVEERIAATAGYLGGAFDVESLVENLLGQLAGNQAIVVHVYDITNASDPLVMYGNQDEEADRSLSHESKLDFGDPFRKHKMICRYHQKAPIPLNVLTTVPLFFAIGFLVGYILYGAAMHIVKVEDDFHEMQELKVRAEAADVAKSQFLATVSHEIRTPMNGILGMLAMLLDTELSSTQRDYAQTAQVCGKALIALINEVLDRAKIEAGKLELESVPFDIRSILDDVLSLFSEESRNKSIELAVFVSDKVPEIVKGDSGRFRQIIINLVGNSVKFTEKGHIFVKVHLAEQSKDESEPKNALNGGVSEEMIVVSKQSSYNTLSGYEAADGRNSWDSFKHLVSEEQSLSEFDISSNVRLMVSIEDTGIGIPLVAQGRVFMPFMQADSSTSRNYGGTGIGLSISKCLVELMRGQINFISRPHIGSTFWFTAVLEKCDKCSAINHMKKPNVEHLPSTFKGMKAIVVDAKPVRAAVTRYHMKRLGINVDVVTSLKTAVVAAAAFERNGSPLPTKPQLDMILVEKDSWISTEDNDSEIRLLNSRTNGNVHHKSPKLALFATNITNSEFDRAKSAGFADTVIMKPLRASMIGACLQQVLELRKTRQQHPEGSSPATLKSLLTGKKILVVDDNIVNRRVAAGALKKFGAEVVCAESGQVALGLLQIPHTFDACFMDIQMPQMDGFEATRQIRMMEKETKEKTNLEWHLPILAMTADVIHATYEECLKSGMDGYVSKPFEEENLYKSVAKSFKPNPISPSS

Compound	Chlorophyll content (% of the fresh control) ([1]; 0.01 μM)	Chlorophyll content (% of the fresh control) ([1]; 0.1 μM)	Chlorophyll content (% of the fresh control) ([1]; 1 μM)	Chlorophyll content (% of the fresh control) ([1]; 10 μM)	chlorophyll remaining, % of the initial chlorophyll ([1]; 10 μM)	Chlorophyll content (% of the fresh control) ([1]; 100 μM)	ethylene production, fold of the control [3]	ethylene production, fold of untreated leaves [3]	level of PSII-LHCII supercomplexes [4]	also measured
COCCNC(=O)Nc1cnns1 [ASES, 1-(2-methoxy-ethyl)-3-1,2,3-thiadiazol-5-yl-urea]	8 (±4) %	25 (±7) %	51 (±8) %	79 (±8) %	~50%	98 (±7) %	1.22 fold	1.36 fold	even higher level of PSII-LHCII supercomplexes than we observed for fresh control	ability to activate the CRE1/AHK4 receptor (CRE1/AHK4): No other derivative from the series, including ASES, was able to activate; IC50 ([1]; detached wheat leaves in the dark, 5 days, concentration at which chlorophyll degradation is inhibited by 50%, read-out: Senescence bioassay (IC50)): 0.95 µM; times more effective than TDZ in WLSA ([1]; ratio of IC50 values): approximately 13 times; ARR5:GUS activity, % of BA activity (ARR5:GUS reporter gene; compound at 10 μM, 1 μM BA = 100%): 55–65%; fold lower potency than BA in inducing betacyanin [2]: ~5 fold; fold lower potency than TDZ in inducing betacyanin [2]: approximately 1,000 fold; EC50 ([2]; betacyanin synthesis, N.A. = not active, read-out: Amaranthus bioassay (EC50)): 4 µM; membrane complexes / level of dimeric PSII in senescent leaves [4]: very similar to those of the fresh control, including high levels of dimeric PSII
O=C(Nc1ccccc1)Nc1cnns1 [TDZ, 1-phenyl-3-(1,2,3-thiadiazol-5-yl)urea, reference compound]	8 (±2) %	18 (±5) %	34 (±7) %	50 (±11) %	approximately 15%	91 (±2) %	2.18 fold	2.02 fold	completely lost	IC50 ([1]; read-out: Senescence bioassay (IC50, μM)): 13 µM; EC50 (ARR5:GUS reporter gene; Arabidopsis thaliana, read-out: ARR5:GUS activation EC50): 4 nM; activity in Amaranthus assay, fold exceeding all other cytokinins [2]: at least 100 fold; EC50 ([2]; read-out: Amaranthus bioassay (EC50, μM)): 0.004 µM
